Experimental data published in ChEMBL document CHEMBL4007424, “Design and Synthesis of Enantiomerically Pure Decahydroquinoxalines as Potent and Selective κ-Opioid Receptor Agonists with Anti-Inflammatory Activity in Vivo” (J Med Chem, 2017).
The source made the active and inactive calls. The rule behind the calls is not given here.

Key:
[1] = molecular target: Kappa-type opioid receptor (Homo sapiens, UniProt P41145); experiment: Agonist activity at recombinant human kappa-type opioid receptor expressed in HEK293 cells after 30 mins by [35S]GTPgammaS binding assay; assay type: functional, cell-based
[2] = test system: Mus musculus; experiment: Antiinflammatory activity in arachidonic acid-induced ear dermatitis ICR mouse model assessed as reduction in ear swelling at 1 mg administered twice tropically 30 mins prior and 15 mins after arachidonic acid addition measured 60 mins post arachidonic acid challenge relative to control; assay type: functional
[3] = test system: Mus musculus; experiment: Antiinflammatory activity in arachidonic acid-induced ear dermatitis ICR mouse model assessed as reduction in ear swelling at 0.3 mg administered twice tropically 30 mins prior and 15 mins after arachidonic acid addition measured 60 mins post arachidonic acid challenge relative to control; assay type: functional
[4] = test system: Mus musculus; experiment: Antiinflammatory activity in arachidonic acid-induced ear dermatitis ICR mouse model assessed as reduction in ear swelling at 3 mg administered twice tropically 30 mins prior and 15 mins after arachidonic acid addition measured 60 mins post arachidonic acid challenge relative to control; assay type: functional
[5] = test system: Mus musculus; experiment: Toxicity in arachidonic acid-induced ear dermatitis ICR mouse model assessed as induction of modest to severe behaviour depression at 0.1 mg to 3 mg administered twice tropically 30 mins prior and 15 mins after arachidonic acid addition measured 60 mins post arachidonic acid challenge; conditions: in vivo, topical_or_ocular, 1 h
[6] = molecular target: Kappa-type opioid receptor (Cavia porcellus, UniProt P41144); experiment: Displacement of [3H]U-69,593 from kappa-type opioid receptor in guinea pig brain membranes after 120 mins by solid scintillation counting; assay type: cell membranes, Membrane
[7] = Displacement of [3H]DPDPE from delta-type opioid receptor in guinea pig brain membranes after 120 mins by solid scintillation counting; assay type: cell membranes, Cavia porcellus, Membrane
[8] = test system: Mus musculus; experiment: Antiinflammatory activity in arachidonic acid-induced ear dermatitis ICR mouse model assessed as reduction in ear swelling at 0.1 mg administered twice tropically 30 mins prior and 15 mins after arachidonic acid addition measured 60 mins post arachidonic acid challenge relative to control; assay type: functional
[9] = test system: Mus musculus; experiment: (§1) Antiinflammatory activity in oxazolone-induced delayed type hypersensitivity BALB/c mouse model assessed as ear weight at 0.6 mg applied topically on ear administered 3 hrs prior to oxazolone challenge on day 7 to 12 post sensitization followed by re-administration of compound on day 13 to 18 without oxazolone challenge measured on day 19 (reference value: 30.2 +/- 0.7 mg); assay type: functional
[10] = test system: Mus musculus; experiment: as §1, with “mast cell dermal infiltration” for “ear weight”, “by H and E staining based assay” for “(reference value: 30.2 +/- 0.7 mg)”; assay type: functional
[11] = test system: Mus musculus; experiment: as §1, with “lymphocyte dermal infiltration” for “ear weight”, “by H and E staining based assay” for “(reference value: 30.2 +/- 0.7 mg)”; assay type: functional
[12] = test system: Mus musculus; experiment: as §1, with “swelling” for “weight”, “242” for “30.2”, “11 micrometer)” for “0.7 mg)”; assay type: functional
[13] = test system: Mus musculus; experiment: as §1, with “hyperplastic epidrmis” for “ear weight”, “by H and E staining based assay” for “(reference value: 30.2 +/- 0.7 mg)”; assay type: functional
[14] = test system: Mus musculus; experiment: as §1, with “swelling” for “weight”, “13” for “19”, “666” for “30.2”, “28 micrometer)” for “0.7 mg)”; assay type: functional
[15] = test system: Mus musculus; experiment: as §1, with “neutrophil dermal infiltration” for “ear weight”, “by H and E staining based assay” for “(reference value: 30.2 +/- 0.7 mg)”; assay type: functional
[16] = test system: Mus musculus; experiment: as §1, with “thickness level” for “weight”, “by H and E staining based assay” for “(reference value: 30.2 +/- 0.7 mg)”; assay type: functional
[17] = Drug level in Wistar Han rat brain at 0.3 mg/kg, iv measured 1 hr post compound administration; assay type: ADME, organism-based; conditions: read-out: Drug uptake
[18] = Ratio of drug level in brain to plasma in Wistar Han rat at 0.3 mg/kg, iv after 0.25 hrs; assay type: ADME, organism-based; conditions: read-out: BPR
[19] = test system: Rattus norvegicus; experiment: Toxicity in Wistar Han rat assessed as induction of hunched or abnormal posture at 0.3 mg/kg, iv measured up to 2 hrs; assay type: organism-based; conditions: in vivo
[20] = Ratio of drug level in brain to plasma in Wistar Han rat at 0.3 mg/kg, iv after 1 hr; assay type: ADME, organism-based; conditions: read-out: BPR
[21] = Plasma concentration in Wistar Han rat at 0.3 mg/kg, iv measured 1 hr post compound administration; assay type: ADME, organism-based
[22] = test system: Rattus norvegicus; experiment: Toxicity in Wistar Han rat assessed as induction of lethargy at 0.3 mg/kg, iv measured up to 2 hrs; assay type: organism-based; conditions: in vivo
[23] = Plasma concentration in Wistar Han rat at 0.3 mg/kg, iv measured 0.25 hrs post compound administration; assay type: ADME, organism-based
[24] = test system: Mus musculus; experiment: (§2) Antiinflammatory activity in tropically administered oxazolone-induced delayed type hypersensitivity BALB/c mouse model assessed as reduction in CD8+ cells per 0.1 mm2 at 2.5 mg administered 3 hrs prior to oxazolone challenge on day 7 to 12 post sensitization followed by re-administration of compound on day 13 to 18 without oxazolone challenge measured on day 19 by DAPI-staining based fluorescence microscopic analysis relative to control; assay type: functional
[25] = test system: Mus musculus; experiment: as §2, with “CD4+” for “CD8+”; assay type: functional
[26] = Lipophilicity, logD of the compound at pH 7.4 by LC/MS analysis; assay type: physicochemical; conditions: buffer
[27] = molecular target: Mu-type opioid receptor (Cavia porcellus, UniProt P97266); experiment: Displacement of [3H]DAMGO from mu-type opioid receptor in guinea pig brain membranes after 120 mins by solid scintillation counting; assay type: cell membranes, Membrane
Sequence of Mu-type opioid receptor (P97266 whole entry): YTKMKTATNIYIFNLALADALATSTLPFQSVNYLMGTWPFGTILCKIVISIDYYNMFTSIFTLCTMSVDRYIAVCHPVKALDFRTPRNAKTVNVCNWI

Sequence of Kappa-type opioid receptor (Cavia porcellus, UniProt P41144) (P41144 whole entry): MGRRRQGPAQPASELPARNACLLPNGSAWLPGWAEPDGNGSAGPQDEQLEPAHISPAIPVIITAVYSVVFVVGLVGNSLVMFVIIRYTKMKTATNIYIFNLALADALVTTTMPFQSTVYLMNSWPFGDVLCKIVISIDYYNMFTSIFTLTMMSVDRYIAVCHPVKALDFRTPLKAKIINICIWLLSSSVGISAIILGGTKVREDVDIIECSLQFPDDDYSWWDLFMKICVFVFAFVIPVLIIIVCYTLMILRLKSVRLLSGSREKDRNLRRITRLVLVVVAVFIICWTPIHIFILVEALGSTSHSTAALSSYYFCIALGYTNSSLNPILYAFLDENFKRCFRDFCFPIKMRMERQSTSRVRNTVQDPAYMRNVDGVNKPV
Sequence of Kappa-type opioid receptor (Homo sapiens, UniProt P41145) (P41145 whole entry): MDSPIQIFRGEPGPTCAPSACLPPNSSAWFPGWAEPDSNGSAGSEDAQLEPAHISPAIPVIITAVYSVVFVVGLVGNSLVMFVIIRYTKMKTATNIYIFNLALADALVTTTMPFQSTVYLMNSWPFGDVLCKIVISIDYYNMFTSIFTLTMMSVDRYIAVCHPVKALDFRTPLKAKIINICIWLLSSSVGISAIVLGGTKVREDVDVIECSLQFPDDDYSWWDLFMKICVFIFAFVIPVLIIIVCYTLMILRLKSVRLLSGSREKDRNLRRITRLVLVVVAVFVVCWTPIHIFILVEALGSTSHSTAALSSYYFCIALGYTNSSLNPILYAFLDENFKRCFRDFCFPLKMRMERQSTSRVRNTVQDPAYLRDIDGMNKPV

COC(=O)N1CCN(C(=O)Cc2ccc(F)c(Cl)c2)[C@@H]2[C@@H](N3CC[C@H](F)C3)CCC[C@@H]21
EC50 [1]: 0.4 nM
inhibition (INH) [2]: 66%
inhibition (INH) [3]: 40%
inhibition (INH) [4]: 60%
Activity [5]: Toxic
Ki [6]: 0.56 nM
Ki [7]: 74 nM
inhibition (INH) [8]: 25%

C[C@]12CCC(=O)C=C1CC[C@@H]1[C@@H]2[C@@H](O)C[C@@]2(C)[C@H]1CC[C@]2(O)C(=O)CO [HYDROCORTISONE]
Activity [9]: 17.2 mg
Activity [10]: Active
Activity [11]: Active
Activity [12]: 66 um
Activity [13]: Active
Activity [14]: 332 um
Activity [15]: Active
Activity [16]: Active

COC(=O)N1CCN(C(=O)Cc2ccc(Cl)c(Cl)c2)[C@@H]2[C@@H](N3CCCC3)CCC[C@@H]21.Cl
concentration at 1 h [17]: 24.2 ng/g
Kp at 0.25 h [18]: 0.5
Activity [19]: Toxic
Kp at 1 h [20]: 0.65
concentration at 1 h [21]: 37.3 ng/mL
Activity [22]: Toxic
concentration at 0.25 h [23]: 117 ng/mL

CS(=O)(=O)N1CCN(C(=O)Cc2ccc(Cl)c(Cl)c2)[C@@H]2[C@@H](N3CC[C@H](O)C3)CCC[C@@H]21
EC50 [1]: 1.8 nM
inhibition (INH) [24]: 45%
inhibition (INH) [25]: 45%
inhibition (INH) [2]: 32%
inhibition (INH) [3]: -4%
inhibition (INH) [4]: 56%
logD [26]: 2.41
Ki [6]: 0.63 nM
Ki [7]: 367 nM
inhibition (INH) [8]: -4%
Ki [27]: 336 nM
